Values quoted from earlier work, collected in patent US20230314440A1, “METHOD OF TREATING CANCER” (priority 2020, published 2023).

Tested on: metastatic renal cell carcinoma (RCC)
Conditions: patients with metastatic RCC; ESMO 2018, Presentation No. 882P

Question: With COc1cc2nccc(Oc3ccc(NC(=O)C4(C(=O)Nc5ccc(F)cc5)CC4)cc3)c2cc1OC [cabozantinib, N-(4-{[6,7-bis(methyloxy)quinolin-4-yl]oxy}phenyl)-N′-(4-fluorophenyl)cyclopropane-1,1-dicarboxamide] as the molecule, how does the “effect on systemic tumor immunity” value read?
Answer: The value was “has an impact on systemic tumor immunity”.
